According to patent US20190151495A1, “Composite biomaterials with controlled release of active ingredient, preparation process and uses” (CENTRE NATIONAL DE LA RECHERCHE SCIENTIFIQUE, priority 2016, published 2019):

How the values were obtained:
[1] = biological target: T1, mineralocorticoid receptor (Rattus norvegicus, UniProt P22199); experiment: Biological activity of spironolactone: luciferase reporter in H9C2 cells incubated with aldosterone; assay type: cell-based; details: FIG. 12
T1 construct: H9C2 cells are myoblasts genetically modified by the incorporation of the reporter gene encoding luciferase; endogenous in cells; host or cells: H9C2 myoblasts carrying a luciferase reporter
T1 sequence (P22199 1-981): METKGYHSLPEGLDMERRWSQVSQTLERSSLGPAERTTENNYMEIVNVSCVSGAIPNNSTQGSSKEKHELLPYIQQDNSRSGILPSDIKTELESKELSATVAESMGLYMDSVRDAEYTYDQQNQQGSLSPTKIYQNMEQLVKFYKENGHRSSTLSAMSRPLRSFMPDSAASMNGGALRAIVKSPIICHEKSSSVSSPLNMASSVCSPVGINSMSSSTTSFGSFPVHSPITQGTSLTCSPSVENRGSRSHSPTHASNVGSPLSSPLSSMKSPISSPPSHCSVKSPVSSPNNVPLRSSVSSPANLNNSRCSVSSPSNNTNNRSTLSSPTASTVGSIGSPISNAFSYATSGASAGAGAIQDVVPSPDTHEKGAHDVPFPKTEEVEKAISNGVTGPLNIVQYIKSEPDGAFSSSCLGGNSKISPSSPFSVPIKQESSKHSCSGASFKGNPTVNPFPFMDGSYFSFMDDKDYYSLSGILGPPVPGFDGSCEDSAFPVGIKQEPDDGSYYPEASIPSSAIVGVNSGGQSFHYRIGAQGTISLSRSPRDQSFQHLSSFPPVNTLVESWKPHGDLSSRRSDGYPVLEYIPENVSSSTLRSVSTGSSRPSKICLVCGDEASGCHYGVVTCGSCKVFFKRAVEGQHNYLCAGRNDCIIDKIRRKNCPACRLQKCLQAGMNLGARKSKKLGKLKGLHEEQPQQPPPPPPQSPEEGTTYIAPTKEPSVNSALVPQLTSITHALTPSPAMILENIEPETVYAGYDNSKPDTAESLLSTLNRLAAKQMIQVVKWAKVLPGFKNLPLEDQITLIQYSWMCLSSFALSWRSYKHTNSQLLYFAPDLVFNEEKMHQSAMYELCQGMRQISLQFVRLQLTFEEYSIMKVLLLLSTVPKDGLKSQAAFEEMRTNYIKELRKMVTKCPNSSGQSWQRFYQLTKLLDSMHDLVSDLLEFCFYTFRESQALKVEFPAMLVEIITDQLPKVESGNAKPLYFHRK
Method: The biological activity of the spironolactone was measured in the following manner: H9C2 cells are myoblasts genetically modified by the incorporation of the reporter gene encoding luciferase downstream of the promoter having sequences binding the complex of aldosterone plus its receptor. When aldosterone was added, luciferase was expressed and detected by bioluminescence. […] This inhibition reports the biological activity of the spironolactone on H9C2s incubated with aldosterone. The spironolactone activity was measured directly on the spironolactone releasing liquid originating from the different types of hydrogels tested.
FIG. 12 represents the biological activity of the spironolactone released from a hydrogel after 15 days of incubation in PBS (with changing of the buffer every day); when the following are used:
(2) a mixture of a material MB-S with aldosterone at approximately 10^−8 M,
(3) a mixture of a material MC-S with aldosterone at approximately 10^−8 M,
(4) a mixture of a material MA-S with aldosterone at approximately 10^−8 M,
(5) a negative control (well containing the culture medium without aldosterone),
(6) aldosterone at approximately 10^−8 M, and
(7) a mixture of aldosterone at approximately 10^−8 M and spironolactone at approximately 10^−6 M.

[2] = system: primary human dermal fibroblasts; experiment: Toxicity of the materials: cell viability by metabolic test (AlamarBlue Assay); assay type: cell-based; details: FIG. 11
Method: The toxicity of the materials was measured as follows: primary human dermal fibroblasts were seeded onto a culture plate. The composite hydrogels were then incubated with the fibroblasts for 1 or 6 days. The cell viability was measured by a metabolic test (AlamarBlue Assay®) and compared with that of control fibroblasts (without addition of composite hydrogel).
FIG. 11 represents the toxicity of the composite biomaterial of the invention M1-S on cells (fibroblasts) and by way of comparison: • the toxicity of a dry collagen material impregnated with spironolactone MB-S obtained from the dehydrated pure collagen material MA-HD as obtained in example 1.3 which was impregnated with a solution comprising approximately 10^−2 M of spironolactone in THF, rinsed and lyophilized in accordance with example 1.4 above, • the toxicity of a dry collagen material impregnated with PLGA MC-S obtained from the dehydrated pure collagen material MA-HD as obtained in example 1.3 which was impregnated with a solution comprising approximately 160 mg/ml of PLGA 30-60 kDa in THF, rinsed and lyophilized in accordance with example 1.4, and • the toxicity of a dry pure collagen material MA-S as obtained in example 1.3.
Moreover, C represents a negative control (well containing just the cells without hydrogel). […]

SMILES	production of luciferase (receptor activation) ([1]; aldosterone approximately 10^-8 M alone, conditions (6) versus negative control (5))	toxicity on cells (in words) ([2]; 1 day and 6 days, compared with control)	cell viability (cells survived) ([2]; first day, relative to negative control C) [%]	production of luciferase (inhibition of aldosterone effect) ([1]; free spironolactone approximately 10^-6 M with aldosterone approximately 10^-8 M, conditions (7))
C[C@]12CCC(=O)C=C1CC[C@@H]1[C@@H]2[C@@H](O)C[C@]2(C=O)[C@@H](C(=O)CO)CC[C@@H]12 [aldosterone]	caused strong transcription	–	–	–
CC(=O)S[C@@H]1CC2=CC(=O)CC[C@]2(C)[C@H]2CC[C@@]3(C)[C@@H](CC[C@@]34CCC(=O)O4)[C@H]12 [spironolactone]	–	slight toxic effect	74	the effect of the aldosterone is inhibited
